Experimental data as given in patent US20100041089A1, “IMPROVED METHOD FOR DETECTING CHEMICAL […]” (priority 2006, published 2010).

System: yeast genes (expressed mRNA)
Assay: DNA chip measurement of expressed mRNA of yeast genes after culture with a toxic chemical substance
Format: cell-based, Saccharomyces cerevisiae S288C
Procedure, shortened: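 Two-hour exposure of growing S. cerevisiae S288C (YPD, 25° C) to a sublethal toxicant preceded RNA isolation. Fluorescent cDNA was hybridized to a whole-genome array; a treated-to-untreated signal ratio of two or more was taken as significant.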

**Q.** What does the source list for `N#Cc1c(Cl)c(Cl)c(Cl)c(C#N)c1Cl` [(9), 2,4,5,6-Tetrachloro-1,3-benzenedicarbonitrile]?
**A.** The level of expressed mRNA in the presence of chemical substance/The level of expressed mRNA in the absence of chemical substance (yeast gene YAL034C, cultured two hours with substance): 3.0; The level of expressed mRNA in the presence of chemical substance/The level of expressed mRNA in the absence of chemical substance (yeast gene YAL053W, cultured two hours with substance): 1.4; The level of expressed mRNA in the presence of chemical substance/The level of expressed mRNA in the absence of chemical substance (yeast gene YAR027W, cultured two hours with substance): 2.3; The level of expressed mRNA in the presence of chemical substance/The level of expressed mRNA in the absence of chemical substance (yeast gene YAR028W, cultured two hours with substance): 1.0; The level of expressed mRNA in the presence of chemical substance/The level of expressed mRNA in the absence of chemical substance (yeast gene YBL048W, cultured two hours with substance): 7.2; The level of expressed mRNA in the presence of chemical substance/The level of expressed mRNA in the absence of chemical substance (yeast gene YBL065W, cultured two hours with substance): 20.8; The level of expressed mRNA in the presence of chemical substance/The level of expressed mRNA in the absence of chemical substance (yeast gene YBL075C (stress protein genes)): 60.3; The level of expressed mRNA in the presence of chemical substance/The level of expressed mRNA in the absence of chemical substance (yeast gene YBL107C, cultured two hours with substance): 1.0; The level of expressed mRNA in the presence of chemical substance/The level of expressed mRNA in the absence of chemical substance (yeast gene YBR008C (transport facilitation protein gene)): 54.6; The level of expressed mRNA in the presence of chemical substance/The level of expressed mRNA in the absence of chemical substance (yeast gene YBR072W (stress protein genes)): 29.4; The level of expressed mRNA in the presence of chemical substance/The level of expressed mRNA in the absence of chemical substance (yeast gene YBR096W, cultured two hours with the chemical substance): 1.2; The level of expressed mRNA in the presence of chemical substance/The level of expressed mRNA in the absence of chemical substance (yeast gene YBR256C): 18.1; The level of expressed mRNA in the presence of chemical substance/The level of expressed mRNA in the absence of chemical substance (yeast gene YCR082W, cultured two hours with substance): 4.3; The level of expressed mRNA in the presence of chemical substance/The level of expressed mRNA in the absence of chemical substance (yeast gene YCR107W, cultured for two hours with substance): 196.6; The level of expressed mRNA in the presence of chemical substance/The level of expressed mRNA in the absence of chemical substance (yeast gene YDL059C, DNA repair protein genes, cultured two hours with substance): 10.5; The level of expressed mRNA in the presence of chemical substance/The level of expressed mRNA in the absence of chemical substance (yeast gene YDL072C, cultured two hours with substance): 1.1; The level of expressed mRNA in the presence of chemical substance/The level of expressed mRNA in the absence of chemical substance (yeast gene YDL204W, cultured two hours with substance): 2.3; The level of expressed mRNA in the presence of chemical substance/The level of expressed mRNA in the absence of chemical substance (yeast gene YDL218W, cultured two hours with substance): 72.5; The level of expressed mRNA in the presence of chemical substance/The level of expressed mRNA in the absence of chemical substance (yeast gene YDL222C, cultured two hours with substance): 1.9; The level of expressed mRNA in the presence of chemical substance/The level of expressed mRNA in the absence of chemical substance (yeast gene YDL234C, cultured two hours with substance): 4.6; The level of expressed mRNA in the presence of chemical substance/The level of expressed mRNA in the absence of chemical substance (yeast gene YDL243C, cultured for two hours with substance): 64.2; The level of expressed mRNA in the presence of chemical substance/The level of expressed mRNA in the absence of chemical substance (yeast gene YDR018C, cultured two hours with substance): 2.3; The level of expressed mRNA in the presence of chemical substance/The level of expressed mRNA in the absence of chemical substance (yeast gene YDR031W, cultured two hours with substance): 1.1; The level of expressed mRNA in the presence of chemical substance/The level of expressed mRNA in the absence of chemical substance (yeast gene YDR070C, cultured two hours with substance): 13.9; The level of expressed mRNA in the presence of chemical substance/The level of expressed mRNA in the absence of chemical substance (yeast gene YDR194C, mitochondria-located protein gene, cultured two hours with substance): 2.8; The level of expressed mRNA in the presence of chemical substance/The level of expressed mRNA in the absence of chemical substance (yeast gene YDR214W, cultured two hours with substance): 5.5; The level of expressed mRNA in the presence of chemical substance/The level of expressed mRNA in the absence of chemical substance (yeast gene YDR253C): 14.8; The level of expressed mRNA in the presence of chemical substance/The level of expressed mRNA in the absence of chemical substance (yeast gene YDR330W, cultured two hours with substance): 3.9; The level of expressed mRNA in the presence of chemical substance/The level of expressed mRNA in the absence of chemical substance (yeast gene YDR340W, cultured two hours with substance): 1.4; The level of expressed mRNA in the presence of chemical substance/The level of expressed mRNA in the absence of chemical substance (yeast gene YDR350C, cultured two hours with substance): 2.8; The level of expressed mRNA in the presence of chemical substance/The level of expressed mRNA in the absence of chemical substance (yeast gene YDR374C, cultured two hours with substance): 10.4; The level of expressed mRNA in the presence of chemical substance/The level of expressed mRNA in the absence of chemical substance (yeast gene YDR391C, cultured two hours with substance): 1.5; The level of expressed mRNA in the presence of chemical substance/The level of expressed mRNA in the absence of chemical substance (yeast gene YDR411C, cultured two hours with substance): 0.7; The level of expressed mRNA in the presence of chemical substance/The level of expressed mRNA in the absence of chemical substance (yeast gene YDR486C, cultured two hours with substance): 2.5; The level of expressed mRNA in the presence of chemical substance/The level of expressed mRNA in the absence of chemical substance (yeast gene YDR494W, cultured two hours with substance): 1.2; The level of expressed mRNA in the presence of chemical substance/The level of expressed mRNA in the absence of chemical substance (yeast gene YDR511W, cultured two hours with substance): 2.5; The level of expressed mRNA in the presence of chemical substance/The level of expressed mRNA in the absence of chemical substance (yeast gene YDR513W): 4.6; The level of expressed mRNA in the presence of chemical substance/The level of expressed mRNA in the absence of chemical substance (yeast gene YDR545W, cultured two hours with substance): 1.8; The level of expressed mRNA in the presence of chemical substance/The level of expressed mRNA in the absence of chemical substance (yeast gene YEL001C, cultured two hours with substance): 2.0; The level of expressed mRNA in the presence of chemical substance/The level of expressed mRNA in the absence of chemical substance (yeast gene YER004W, cultured two hours with substance): 4.5; The level of expressed mRNA in the presence of chemical substance/The level of expressed mRNA in the absence of chemical substance (yeast gene YER035W, cultured two hours with substance): 1.2; The level of expressed mRNA in the presence of chemical substance/The level of expressed mRNA in the absence of chemical substance (yeast gene YER038C, cultured two hours with substance): 0.7; The level of expressed mRNA in the presence of chemical substance/The level of expressed mRNA in the absence of chemical substance (yeast gene YER079W, cultured two hours with substance): 5.3; The level of expressed mRNA in the presence of chemical substance/The level of expressed mRNA in the absence of chemical substance (yeast gene YER096W, metabolism protein genes): 7.5; The level of expressed mRNA in the presence of chemical substance/The level of expressed mRNA in the absence of chemical substance (yeast gene YER103W (stress protein genes)): 20.3; The level of expressed mRNA in the presence of chemical substance/The level of expressed mRNA in the absence of chemical substance (yeast gene YER106W, cultured two hours with substance): 0.4; The level of expressed mRNA in the presence of chemical substance/The level of expressed mRNA in the absence of chemical substance (yeast gene YER158C, cultured two hours with substance): 2.1; The level of expressed mRNA in the presence of chemical substance/The level of expressed mRNA in the absence of chemical substance (yeast gene YER163C, cultured two hours with substance): 5.4; The level of expressed mRNA in the presence of chemical substance/The level of expressed mRNA in the absence of chemical substance (yeast gene YER175C, cultured two hours with substance): 1.9; The level of expressed mRNA in the presence of chemical substance/The level of expressed mRNA in the absence of chemical substance (yeast gene YFL006W, cultured two hours with substance): 3.2
